Laboratory results taken from US6358883B1, “Pesticidal and parasiticidal use of 1-aryl-1-(substituted thio, sulfinyl and sulfonyl)-2-nitroethane compounds” (American Cyanamid Company, priority 1998, dated 2002).

Legend:
Type in all cases: in vivo
[1] = tested on: Aphis gossypii, cotton aphid (CA); experiment: Cotton aphid (CA) cotyledon dip test; set-up: key: 0 = no effect; 1 = 10-25% kill; 2 = 26-35% kill; 3 = 36-45% kill; 4 = 46-55% kill; 5 = 56-65% kill; 6 = 66-75% kill; 7 = 76-85% kill; 8 = 86-99% kill; 9 = 100% kill; settings: mortality after 5 days
Outline: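 Mortality was scored 5 days after dipping aphid-infested cotyledons, colonised overnight from a transfer leaf, into water dilutions of a 35% acetone/water compound solution.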

[2] = tested on: Spodoptera eridania, eggs-southern armyworm (SAW-Eggs); experiment: Southern armyworm eggs (SAW-Eggs) treated diet test; set-up: key: 0 = no effect; 1 = 10-25% kill; 2 = 26-35% kill; 3 = 36-45% kill; 4 = 46-55% kill; 5 = 56-65% kill; 6 = 66-75% kill; 7 = 76-85% kill; 8 = 86-99% kill; 9 = 100% kill; settings: mortality after 7 days
Outline: (§1)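 Eggs of S. eridania or D. undecimpunctata howardi were set on artificial diet pretreated with test solution (10,000 ppm stock in 35% aqueous acetone, water dilutions) and dried. Wells were sealed with vented clear covers, and mortality was scored at day 7.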

[3] = tested on: M. incognita (Root Knot Nematode) larvae; experiment: Evaluation of test compounds against M. incognita larvae in microtiter plate wells (movement score); settings: larvae scored for movement after 20-24 hours; note: key: A score of '9' indicates inactive worms with a straight, sticklike morphology; A score of '8' indicates inactive worms with a limp, curled or curved morphology; A score of '7' indicates dead/paralyzed worms after 72 hours
Outline: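 Scoring is by larval movement: dead or paralyzed worms count as positive, and a "7" means dead/paralyzed at 72 hours. Freshly hatched root-knot larvae (50-65 per well) in buffered S Medium were incubated with compounds under plate sealers for 20-24 h before the first read.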

[4] = tested on: Tetranychus urticae (OP-resistant strain), 2-spotted spider mite (TSM); experiment: 2-spotted spider mite (TSM) plant dip test; set-up: key: 0 = no effect; 1 = 10-25% kill; 2 = 26-35% kill; 3 = 36-45% kill; 4 = 46-55% kill; 5 = 56-65% kill; 6 = 66-75% kill; 7 = 76-85% kill; 8 = 86-99% kill; 9 = 100% kill; settings: mortality after 2 days
Outline: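 Mortality counted 2 days after a 3 s agitated dip of infested Sieva lima bean plants. Compound came from a 10,000 ppm stock in 35% aqueous acetone, with further dilution in water. Each primary leaf carried about 100 OP-resistant mites, allowed to settle ~2 h before dipping.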

[5] = tested on: C. elegans (Bristol strain); experiment: Evaluation of test compounds against C. elegans (motility, 96-well plate); set-up: key: 9=complete kill in 4 hours; 8=complete kill in 24 hours; 7=markedly reduced motility in approximately 95% of worms in 24 hours; 0=normal motility, same as controls; settings: motility at 4 and 24 hours
Outline: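 Activity is a semi-quantitative visual score of adult and larval movement, read at 4 h and 24 h post-immersion at 20 °C after gentle tapping. Worms were suspended in Na buffer in wells where compound, dissolved in 80% acetone, had been evaporated.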

[6] = tested on: Diabrotica undecimpunctata howardi, eggs-southern corn rootworm (SCR-Eggs); experiment: Southern corn rootworm eggs (SCR-Eggs) treated diet test; set-up: key: 0 = no effect; 1 = 10-25% kill; 2 = 26-35% kill; 3 = 36-45% kill; 4 = 46-55% kill; 5 = 56-65% kill; 6 = 66-75% kill; 7 = 76-85% kill; 8 = 86-99% kill; 9 = 100% kill; settings: mortality after 7 days
Outline: as §1

[7] = tested on: Spodoptera eridania, 2nd instar larvae, southern armyworm (SAW); experiment: Southern armyworm (SAW) leaf dip test; set-up: key: 0 = no effect; 1 = 10-25% kill; 2 = 26-35% kill; 3 = 36-45% kill; 4 = 46-55% kill; 5 = 56-65% kill; 6 = 66-75% kill; 7 = 76-85% kill; 8 = 86-99% kill; 9 = 100% kill
Outline: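 Ten 2nd instar caterpillars feed on a Sieva lima bean leaf that was dipped 3 seconds in test solution (stock 10,000 ppm in 35% acetone/water, water-diluted). Five days later, larvae are assessed for death, feeding reduction or abnormal molting.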

[8] = tested on: Diabrotica virgifera virgifera Leconte, 2nd instar western corn rootworm (WCR); experiment: Western corn rootworm (WCR) soil test; set-up: key: 0 = no effect; 1 = 10-25% kill; 2 = 26-35% kill; 3 = 36-45% kill; 4 = 46-55% kill; 5 = 56-65% kill; 6 = 66-75% kill; 7 = 76-85% kill; 8 = 86-99% kill; 9 = 100% kill
Outline: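 Ten 2nd-instar rootworm larvae are placed in jars of moist soil with millet seed and talc treated with 1.25 mg active ingredient (roughly 50 kg/ha) from a 35% acetone-in-water solution. After 5 days mortality is scored, counting missing larvae as dead.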

Compound	CA (300 ppm) rating [1]	SAW Eggs (300 ppm) rating [2]	M. incognita (150 ppm) score [3]	TSM (300 ppm) rating [4]	Rating Against C. elegans (150 ppm) [5]	SCR Eggs (1000 ppm) rating [6]	SAW (300 ppm) rating [7]	WCR (50 ppm) rating [8]
CCCCOC(=O)CSC(C[N+](=O)[O-])c1cccnc1 (stereo not drawn) [Example 173]	0	0	9	0	8	0	0	0
CCCOC(=O)CSC(C[N+](=O)[O-])c1cccc(OC)c1 (racemic) [Example 103]	0	0	9	4 (4 = 46-55% kill)	8	0	0	0
CCOC(=O)CSC(C[N+](=O)[O-])c1c(Cl)cccc1Cl (stereo not drawn) [Example 132]	0	9 (9 = 100% kill)	0	0	0	9 (9 = 100% kill)	0	0
CCOC(=O)CSC(C[N+](=O)[O-])c1ccc(C)cc1 (stereo not drawn) [Example 5]	0	0	9	0	9	0	0	4 (4 = 46-55% kill)
CCOC(=O)CSC(C[N+](=O)[O-])c1cccc(C#N)c1 (racemic) [Example 99]	0	0	0	0	0	0	0	0
O=C(CSC(C[N+](=O)[O-])c1ccc2ccccc2c1)OCc1ccccc1 (racemic) [Example 114]	0	9 (9 = 100% kill)	0	3 (3 = 36-45% kill)	9	0	0	0
CCCCOC(=O)CSC(C[N+](=O)[O-])c1ccc2ccccc2c1 (racemic) [Example 113]	0	9 (9 = 100% kill)	0	0	9	0	3 (3 = 36-45% kill)	0
CC(C)CCCCCOC(=O)CSC(C[N+](=O)[O-])c1ccc2c(c1)OCO2 (stereo not drawn) [Example 21]	7 (7 = 76-85% kill)	0	8	0	0	0	0	0
COc1ccc(C(C[N+](=O)[O-])SCC(=O)OCc2ccccc2)cc1 (racemic) [Example 108]	0	9 (9 = 100% kill)	9	0	8	0	0	0
C=CCSC(C[N+](=O)[O-])c1ccc2ccccc2c1 (stereo not drawn) [Example 125]	0	0	0	0	0	0	0	0
O=C(O)CSC(C[N+](=O)[O-])c1ccc(OC(F)(F)F)cc1 (stereo not drawn) [Example 127]	0	0	9	0	9	0	0	0
CCCCOC(=O)CSC(C[N+](=O)[O-])c1c(Cl)cccc1Cl (stereo not drawn) [Example 134]	0	0	0	0	0	0	0	0
COc1ccc(C(C[N+](=O)[O-])SCc2ccccc2)cc1 (stereo not drawn) [Example 52]	0	0	9	0	9	0	0	4 (4 = 46-55% kill)
COC(=O)CSC(C[N+](=O)[O-])c1ccc(OC)cc1 (stereo not drawn) [Example 47]	0	0	9	4 (4 = 46-55% kill)	9	0	0	4 (4 = 46-55% kill)
CCCCC(CC)COC(=O)CSC(C[N+](=O)[O-])c1ccc(OC)cc1 (stereo not drawn) [Example 51]	0	9 (9 = 100% kill)	0	0	0	8 (8 = 86-99% kill)	0	4 (4 = 46-55% kill)
